Assays:
[1] = Bronchodilatory activity in Dunkin-Hartley guinea pig trachea assessed as time taken for electrical filed stimulation-induced constrictive response to recover by 50%; format: functional, Cavia porcellus
Homo sapiens = species on record: Homo sapiens; experiment: Selectivity ratio of EC50 for human recombinant beta-1 adrenergic receptor to EC50 for human recombinant beta2 adrenergic receptor
[2] = Distribution coefficient, log D of the compound; format: physicochemical; conditions: octanol/water
[3] = target: Beta-2 adrenergic receptor (Homo sapiens, UniProt P07550); experiment: Agonist activity at human recombinant beta2 adrenergic receptor expressed in CHO cells assessed as elevation in cAMP level after 1 hr by flashplate method; format: functional, cell-based
Chain of Beta-2 adrenergic receptor (P07550 whole entry): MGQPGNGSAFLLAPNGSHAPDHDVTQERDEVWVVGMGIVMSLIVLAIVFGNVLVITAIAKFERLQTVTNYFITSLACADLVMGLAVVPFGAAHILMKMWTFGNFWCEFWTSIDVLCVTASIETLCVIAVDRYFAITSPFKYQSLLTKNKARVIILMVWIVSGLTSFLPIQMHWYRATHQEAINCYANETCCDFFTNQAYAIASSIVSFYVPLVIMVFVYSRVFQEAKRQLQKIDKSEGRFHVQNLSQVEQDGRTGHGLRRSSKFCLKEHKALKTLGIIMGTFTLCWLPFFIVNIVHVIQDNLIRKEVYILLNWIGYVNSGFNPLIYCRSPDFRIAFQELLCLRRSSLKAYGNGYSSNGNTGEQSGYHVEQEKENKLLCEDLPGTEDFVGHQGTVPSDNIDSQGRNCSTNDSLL

[4] = Dissociation constant, pKa of the compound; format: physicochemical
Canis familiaris [5] = experiment: Cardiotoxicity in itr dosed Beagle dog assessed as increase in heart rate after 7.5 hrs; format: toxicity, organism-based, Canis lupus familiaris; conditions: in vivo, inhaled_or_intranasal
Canis familiaris [6] = experiment: Bronchodilatory activity in itr dosed Beagle dog assessed as duration of blockade of acetylcholine-induced bronchoconstriction at ED50 administered as single dose prior to acetylcholine challenge
Canis familiaris [7] = experiment: Bronchodilatory activity in itr dosed Beagle dog assessed as duration of blockade of acetylcholine-induced bronchoconstriction at 10 times ED50 administered as single dose prior to acetylcholine challenge
Canis familiaris [8] = species on record: Canis familiaris
Description: Bronchodilatory activity in itr dosed Beagle dog assessed as inhibition of acetylcholine-induced bronchoconstriction administered 5 doses of compound at cumulative 1 hr intervals

Liver microsomes [9] = experiment: Intrinsic clearance in human liver microsome; format: ADME
in vivo = conditions: beagle, dog, inhaled or intranasal
Description: Therapeutic index, ratio of dose inducing cardiovascular side effects to ED50 for inhibition of acetylcholine-induced bronchoconstriction in itr dosed Beagle dog

[10] = Cmax in rat at 100 ug, it; format: ADME, organism-based; parameters: dose 100 ug; conditions: in vivo, inhaled or intranasal
Liver [11] = experiment: Unbound intrinsic clearance in rat liver; format: ADME, Microsome; conditions: microsomes
[12] = Apparent permeability from apical to basolateral side of human Caco-2 cells; format: ADME, cell-based
Canis familiaris [13] = experiment: Cardiotoxicity in itr dosed Beagle dog assessed as induction of trachycardia after 7.5 hrs; format: toxicity, organism-based, Canis lupus familiaris; conditions: in vivo, inhaled_or_intranasal
[14] = Oral bioavailability in rat; format: ADME, organism-based; conditions: in vivo
[15] = Total clearance in iv dosed rat; format: ADME, organism-based; conditions: in vivo
[16] = Plasma protein binding in iv dosed rat; format: ADME, organism-based; conditions: read-out: PPB (converted)
[17] = Volume of distribution in iv dosed rat; format: ADME, organism-based; conditions: in vivo
Liver microsomes [18] = experiment: Intrinsic clearance in human liver microsome in presence of CYP3A4 inhibitor ketoconazole; format: ADME
[19] = Half life in iv dosed rat; format: ADME, organism-based; conditions: in vivo
[20] = Tmax in rat at 100 ug, it; format: ADME, organism-based; conditions: in vivo, inhaled or intranasal
Liver microsomes [21] = experiment: Metabolic stability in human liver microsome; format: ADME
[22] = Metabolic stability in rat bile assessed as compound remaining; format: ADME, tissue-based
[23] = Apparent permeability from basolateral to apical side of human Caco-2 cells; format: ADME, cell-based
Oryctolagus cuniculus = species on record: Oryctolagus cuniculus; experiment: Toxicity in rabbit Adelta-fibre firing model assessed as induction of postinhalation cough at 50 to 1000 ug, it; format: organism-based; conditions: in vivo, inhaled_or_intranasal
Liver [24] = experiment: Intrinsic clearance in rat liver; format: ADME, Microsome; conditions: microsomes
[25] = target: Voltage-gated inwardly rectifying potassium channel KCNH2 (Homo sapiens, UniProt Q12809); experiment: Inhibition of human ERG by patch clamp technique
Chain of Voltage-gated inwardly rectifying potassium channel KCNH2 (Q12809 whole entry): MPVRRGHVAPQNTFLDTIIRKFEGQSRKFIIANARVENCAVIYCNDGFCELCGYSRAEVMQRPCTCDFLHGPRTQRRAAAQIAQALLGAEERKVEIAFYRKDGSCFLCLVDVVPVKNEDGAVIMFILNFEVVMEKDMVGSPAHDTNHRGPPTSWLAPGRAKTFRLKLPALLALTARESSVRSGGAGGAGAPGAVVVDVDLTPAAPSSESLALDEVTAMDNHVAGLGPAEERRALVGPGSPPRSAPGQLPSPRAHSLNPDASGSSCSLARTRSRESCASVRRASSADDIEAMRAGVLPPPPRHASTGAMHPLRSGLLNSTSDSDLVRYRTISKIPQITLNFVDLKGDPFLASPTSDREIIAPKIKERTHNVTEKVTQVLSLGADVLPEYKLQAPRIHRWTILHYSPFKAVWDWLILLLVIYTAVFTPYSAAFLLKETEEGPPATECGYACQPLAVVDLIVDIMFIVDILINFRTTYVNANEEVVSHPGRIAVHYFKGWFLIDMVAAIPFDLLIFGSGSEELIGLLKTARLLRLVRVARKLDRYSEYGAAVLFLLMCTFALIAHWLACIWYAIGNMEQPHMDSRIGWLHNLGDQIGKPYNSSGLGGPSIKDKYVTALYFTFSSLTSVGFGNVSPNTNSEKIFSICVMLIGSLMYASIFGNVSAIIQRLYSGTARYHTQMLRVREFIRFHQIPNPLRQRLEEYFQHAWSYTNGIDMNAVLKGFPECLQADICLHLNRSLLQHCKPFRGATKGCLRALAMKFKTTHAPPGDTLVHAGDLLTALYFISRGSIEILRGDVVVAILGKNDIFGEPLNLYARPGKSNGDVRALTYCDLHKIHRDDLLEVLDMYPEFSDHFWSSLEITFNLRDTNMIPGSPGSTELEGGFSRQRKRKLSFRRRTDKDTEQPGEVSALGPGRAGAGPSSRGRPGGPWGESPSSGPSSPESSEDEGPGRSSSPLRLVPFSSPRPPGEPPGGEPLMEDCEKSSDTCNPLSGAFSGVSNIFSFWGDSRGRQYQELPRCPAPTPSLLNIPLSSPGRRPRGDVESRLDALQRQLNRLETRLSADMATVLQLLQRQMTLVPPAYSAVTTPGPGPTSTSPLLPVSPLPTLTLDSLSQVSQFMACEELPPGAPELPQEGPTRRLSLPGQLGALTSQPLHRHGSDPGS

## C[C@H](Cc1cccc(CC(=O)NCc2ccc(Cl)c(Cl)c2)c1)NC[C@H](O)c1ccc(O)c(CO)c1
[1]
  Time: 9 h
Homo sapiens
  Ratio EC50: 5300

## Cc1ccc(CNC(=O)Cc2cccc(C[C@@H](C)NC[C@H](O)c3ccc(O)c(NS(C)(=O)=O)c3)c2)cc1C
[2]
  logD: 2
[1]
  Time: 6.74 h
[3]
  EC50: 0.056 nM
Homo sapiens
  Ratio EC50: 3700

## CC(C)(Cc1cccc(CC(=O)NCc2ccc3cc(O)ccc3c2)c1)NC[C@H](O)c1ccc(O)c(NS(C)(=O)=O)c1
[2]
  logD: 1.3
[1]
  Time: 6.17 h
[3]
  EC50: 0.21 nM
Homo sapiens
  Ratio EC50: 730

## C[C@H](Cc1cccc(CC(=O)NC23CC4CC(CC(C4)C2)C3)c1)NC[C@H](O)c1ccc(O)c(CO)c1
[1]
  Time: 6.35 h
[3]
  EC50: 0.064 nM
Homo sapiens
  Ratio EC50: 1300

## CC(C)(Cc1cccc(CC(=O)NCc2cc(Cl)c(O)c(Cl)c2)c1)NC[C@H](O)c1ccc(O)c(NS(C)(=O)=O)c1
[2]
  logD: 0.8
[1]
  Time: 3.66 h
[3]
  EC50: 0.091 nM
Homo sapiens
  Ratio EC50: 1600
[4]
  pKa: 6.69

## CC(C)(Cc1cccc(CC(=O)NCc2ccccc2)c1)NC[C@H](O)c1ccc(O)c(NS(C)(=O)=O)c1
[3]
  EC50: 0.023 nM
Homo sapiens
  Ratio EC50: 7500

## CCN(Cc1ccc(O)cc1Cl)C(=O)Cc1cccc(CC(C)(C)NC[C@H](O)c2ccc(O)c(NS(C)(=O)=O)c2)c1
[2]
  logD: 1.6
[1]
  Time: 8.49 h
[3]
  EC50: 0.37 nM
Homo sapiens
  Ratio EC50: 210

## CCOc1ccccc1CNC(=O)Cc1cccc(C[C@@H](C)NC[C@H](O)c2ccc(O)c(NS(C)(=O)=O)c2)c1
[2]
  logD: 1.6
[1]
  Time: 6.2 h
[3]
  EC50: 0.048 nM
Homo sapiens
  Ratio EC50: 3300

## OCc1cc(C(O)CNCCCCCCOCCCCc2ccccc2)ccc1O (stereo not given) [SALMETEROL]
Canis familiaris [5]
  Activity: Toxic
Canis familiaris [6]
  Time: 4 h
[1]
  Time: 6.97 h
Canis familiaris [7]
  Time: <7 h
Canis familiaris [8]
  ED50: 1 µg

## CC(C)(Cc1cccc(CC(=O)NCc2ccc(O)cc2Cl)c1)NC[C@H](O)c1ccc(O)c(NS(C)(=O)=O)c1
[2]
  logD: 1.2
[1]
  Time: 6.8 h
[3]
  EC50: 0.02 nM
Homo sapiens
  Ratio EC50: 7300

## CC(C)(Cc1cccc(CC(=O)NCc2ccc(-c3ccc(O)cc3)cc2)c1)NC[C@H](O)c1ccc(O)c(NS(C)(=O)=O)c1
[1]
  Time: 6.57 h
Homo sapiens
  Ratio EC50: 1300

## C[C@H](Cc1cccc(CC(=O)NCc2ccccc2)c1)NC[C@H](O)c1ccc(O)c(NS(C)(=O)=O)c1
[2]
  logD: 1
[1]
  Time: 3.24 h
[3]
  EC50: 0.027 nM
Homo sapiens
  Ratio EC50: 16000

## COc1ccccc1CNC(=O)Cc1cccc(C[C@@H](C)NC[C@H](O)c2ccc(O)c(NS(C)(=O)=O)c2)c1
[2]
  logD: 1.2
[1]
  Time: 4.22 h
[3]
  EC50: 0.04 nM
Homo sapiens
  Ratio EC50: 5600

## CC(C)(Cc1cccc(CC(=O)NCc2cc(Cl)cc(Cl)c2O)c1)NC[C@H](O)c1ccc(O)c(NS(C)(=O)=O)c1
[2]
  logD: 2
[1]
  Time: 8.02 h
[3]
  EC50: 0.13 nM
Homo sapiens
  Ratio EC50: 560

## CC(C)(Cc1cccc(CC(=O)NCc2cc(Cl)ccc2O)c1)NC[C@H](O)c1ccc(O)c(NS(C)(=O)=O)c1
[2]
  logD: 1.6
[1]
  Time: 6 h
[3]
  EC50: 0.17 nM
Homo sapiens
  Ratio EC50: 7000
[4]
  pKa: 9.22

## CC(C)(Cc1cccc(CC(=O)NCc2ccc(Cl)c(Cl)c2)c1)NC[C@H](O)c1ccc(O)c(NS(C)(=O)=O)c1
[2]
  logD: 2.4
[1]
  Time: 8.34 h
[3]
  EC50: 0.066 nM
Homo sapiens
  Ratio EC50: 1700

## C[C@H](Cc1cccc(CC(=O)NCCc2ccccc2)c1)NC[C@H](O)c1ccc(O)c(NS(C)(=O)=O)c1
[3]
  EC50: 0.04 nM
Homo sapiens
  Ratio EC50: 1800

## C[C@H](Cc1cccc(CC(=O)NCC2CCCCC2)c1)NC[C@H](O)c1ccc(O)c(NS(C)(=O)=O)c1
[1]
  Time: 5.79 h
[3]
  EC50: 0.032 nM
Homo sapiens
  Ratio EC50: 3100

## Cc1cc(O)cc(C)c1CNC(=O)Cc1cccc(CC(C)(C)NC[C@H](O)c2ccc(O)c(NS(C)(=O)=O)c2)c1
[2]
  logD: 1.1
[1]
  Time: 4.59 h
[3]
  EC50: 0.045 nM
Homo sapiens
  Ratio EC50: 3700
[4]
  pKa: 9.93

## CC(C)(Cc1ccccc1)NCC(O)c1ccc(O)c(NS(C)(=O)=O)c1 (stereo not given) [ZINTEROL]
[2]
  logD: 0.6
[1]
  Time: 3.4 h

## CC(C)(Cc1cccc(CC(=O)NCc2cccc(-c3ccc(O)cc3)c2)c1)NC[C@H](O)c1ccc(O)c(NS(C)(=O)=O)c1 [PF-00610355]
Liver microsomes [9]
  CL: 0.054 mL/min/kg
In vivo
  selectivity ratio: ≥ 10
Canis familiaris [6]
  Time: >8 h
[10]
  Cmax: 1.3 nM
Liver [11]
  CL free: > 10000 mL/min/kg
[12]
  Papp A→B: < 1 ×10⁻⁶ cm/s
[2]
  logD: 1.9
Canis familiaris [13]
  Activity: Non-toxic
[14]
  bioavailability: < 5%
[15]
  clearance: 103 mL/min/kg
[1]
  Time: 6.23 h
[16]
  fraction unbound: 0.05
[17]
  Vd: 31 L/kg
Liver microsomes [18]
  CL: < 0.01 mL/min/kg
[19]
  half-life: 3.5 h
[20]
  Tmax: 0.5 h
Canis familiaris [7]
  Time: >8 h
Liver microsomes [21]
  Stability: 80%
[22]
  Stability: 6%
[23]
  Papp B→A: 13 ×10⁻⁶ cm/s
Homo sapiens
  Ratio EC50: 220
Canis familiaris [8]
  ED50: 0.1 µg
Oryctolagus cuniculus
  Activity: Non-toxic
Liver [24]
  CL: 0.033 mL/min/kg
[25]
  IC50: > 10000 nM

## COc1cccc(OC)c1CNC(=O)c1cc2cc(C[C@@H](C)NC[C@H](O)c3ccc(O)c(CO)c3)ccc2[nH]1
In vivo
  selectivity ratio: 10
Canis familiaris [6]
  Time: >8 h
Canis familiaris [7]
  Time: >8 h
Canis familiaris [8]
  ED50: 1 µg

## C[C@H](Cc1cccc(CC(=O)NCCCc2ccccc2)c1)NC[C@H](O)c1ccc(O)c(NS(C)(=O)=O)c1
[2]
  logD: 1.7
[1]
  Time: 5.85 h
[3]
  EC50: 0.042 nM
Homo sapiens
  Ratio EC50: 3400

— ChEMBL document CHEMBL1240530, “Inhalation by design: novel ultra-long-acting β(2)-adrenoreceptor agonists for inhaled once-daily treatment of asthma and chronic obstructive pulmonary disease that utilize a sulfonamide agonist headgroup” (J Med Chem, 2010)
